From US10632081B2, “Intralymphatic delivery of hyaluronan nanoparticle for cancer metastasis” (priority 2015, dated 2020)

How the values were obtained:
[1] = Local toxicity assessment (Primary Dermal Irritation Index); format: in vivo, BALB/c mice; settings: sc foot pad
Protocol: Mice were weighted and grouped into (1) vehicle; (2) 0.3 mg Pt/kg oxaliplatin; (3) 1 mg Pt/kg oxaliplatin; (4) 3 mg Pt/kg Oxaliplatin; (5) 0.3 mg Pt/kg PtHC604; (6) 1 mg Pt/kg PtHC604; (7) 3 mg Pt/kg PtHC604, n=6/group. Each animal was treated once weekly for 4 weeks. The skin toxicities in the injection site were measured by erythema and oedema grading (Table 1). The skin toxicities potential was evaluated using Primary Dermal Irritation Index (PDII) by combining erythema and oedema grading, and classified into non-irritant, negligible-irritant, mild irritant, moderate irritant, and severe irritant (Table 2).

B16-F10-luc2 cells = assay: In vitro cytotoxicity assay (MTT); format: cell-based, Murine; settings: 48 h treatment
Protocol: B16-F10-luc2 cells were cultured in RPMI1640 medium supplemented with 10% heat-inactivated fetal bovine serum and maintained in a humidified 37° C., 5% CO2 incubator. B16-F10-luc2 cells were seeded on 96-well plate for 2×10^3 cells per well and incubated overnight at 37° C. Cells were treated with phosphate-buffered saline (PBS), oxaliplatin, or PtHC604 for 48 hours at 37° C. Cell viability was determined by MTT assay.

[2] = Lymphatic delivery of PtHC604 by subcutaneous injection in normal rats; format: in vivo, SD rats; settings: sc mammary fat pad, 1 mg Pt/kg
Protocol: To evaluate the lymphatic delivery, SD rats were placed under isoflurane anesthesia and injected subcutaneously into the right mammary fat pad with PtHC604, PtHC16001 or oxaliplatin (1 mg Pt/kg). […] Right axillary lymph nodes, sciatic nerves and plasma were harvested and stored at −80° C. until analysis. Platinum concentrations in lymph nodes and sciatic nerves were analyzed by ICP-MS. Platinum concentration in plasma was analyzed by ICP-OES.

[3] = Residual drug in injection site evaluation; settings: 1 mg Pt/kg
Protocol: After 4, 24, 48, and 96 hours post-injection, animals were euthanized by CO2. Each foot was harvested and stored at −80° C. until analysis. Platinum concentration in each foot was analyzed by ICP-MS.

[4] = Lymphatic delivery of PtHC604 by different injection routes; format: in vivo, Sprague Dawley (SD) rats; settings: iv, 9 mg Pt/kg, right axillary lymph node Pt
Protocol: […] […] […] Right axillary lymph nodes were harvested and stored at −80° C. until analysis. Platinum concentration in lymph nodes was analyzed by ICP-MS (THERMO XSERIES II).

B16-F10-luc2 = assay: Survival rate and anti-lymphatic metastasis in spontaneous lymphatic metastasis model of B16-F10-luc2; format: in vivo, C57BL/6 mice; settings: for volume of popliteal lymph node (mean±SEM): 3 mg Pt/kg twice a week for 2 weeks
Description: Prior inoculation of the cells, B16-F10-luc2 cells were harvested during the exponential growth period and washed twice with sterile PBS, and then suspended in PBS with 50% Matrigel (BD Biosciences). Respective 3×10^5 B16-F10-luc2 cells were implanted subcutaneously into the right hind foot pad of female C57BL/6 mice (6 to 8 weeks old). B16-F10-luc2 tumors were allowed to grow for 5 weeks, and the tumor cells spontaneously metastasized to regional popliteal lymph node. Lymphatic metastasis was confirmed by bioluminescence imagine using IVIS spectrum. Oxaliplatin was administered by intravenous or subcutaneous injection at the dose of 3 mg Pt/kg, and PtHC604 was administered by subcutaneous injection into the footpad at the same dose of 3 mg Pt/kg. All test articles were administrated twice a week for 2 weeks (n=6-8/group in one independent experiment). Tumor size was measured by calipers and converted into tumor volume using the following formula: V=LS^2/2 (where L is the longest diameter and S is the shortest diameter). Death was defined when mice dead or tumor volumes were >3000 mm^3. At the end of study, mice were sacrificed and the popliteal lymph node was collected for measurement. The volume of lymph node was measured by the same formula above: V=LS^2/2.

SAS-LN = assay: Anti-lymphatic metastasis in spontaneous lymphatic metastasis model of SAS-LN; format: in vivo, BALB/c nude mice; settings: iv, 3 mg Pt/kg, qw for 5 weeks, cervical lymph nodes by IVIS
Protocol: SAS-LN cells transfected with luciferase were suspended in PBS and were orthotropic implanted (2×10^5 cells per mouse) into the tongue of female BALB/c nude mice (6 to 8 weeks old). SAS-LN tumors were allowed to grow for 1 week. Cisplatin was administered by intravenous injection at dose of 3 mg Pt/kg, and CPHC008 was administered by subcutaneous injection into the buccal site at dose of 3 mg Pt/kg (n=10/group). All test articles were administrated once a week for 5 weeks. After sacrifice, cervical lymph nodes were collected to evaluate metastasis by bioluminescence imagine using IVIS.

[5] = 0.3 mg Pt/kg once weekly for 4 weeks
[6] = 1 mg Pt/kg once weekly for 4 weeks
[7] = 3 mg Pt/kg once weekly for 4 weeks

SMILES	Classification of dermal irritation [1, 5]	Dermal irritation index [1, 5]	Classification of dermal irritation [1, 6]	Dermal irritation index [1, 6]	Classification of dermal irritation [1, 7]	Dermal irritation index [1, 7]	Classification of dermal irritation ([1]; 3 mg Pt/kg once weekly for 4 weeks, listed as oxaliplatin)	IC50 (B16-F10-luc2 cells) [nM]	AUC (96 h) (h * ug/g) Lymph node ([2]; axillary lymph node Pt) [µg·h/g]	AUC (96 h) (h * ug/g) Plasma ([2]; plasma Pt) [µg·h/g]	AUC (96 h) (h * ug/g) Sciatic nerve ([2]; sciatic nerve Pt) [µg·h/g]	residual Pt detected in the foot ([3]; 24 hour after sc footpad injection) [%]	Pt exposure in the foot ([3]; sc footpad injection, up to 96 hours) [µg·h/mL]	Lymphatic AUC0-96 h [4] [µg·h/g]	volume of popliteal lymph node (mean±SEM) (B16-F10-luc2; intravenous injection) [mm^3]	Median survival days (B16-F10-luc2; iv, 3 mg Pt/kg, biw, mice bearing metastatic melanoma) [days]	volume of popliteal lymph node (mean±SEM) (B16-F10-luc2; subcutaneous injection) [mm^3]	Lymphatic metastasis (metastatic ratio) (SAS-LN) [%]	Lymphatic metastasis (metastatic ratio) (SAS-LN; listed as cisplatin) [%]
O=C1[O][Pt]2([NH][C@@H]3CCCC[C@H]3[NH]2)[O]C1=O [Oxaliplatin, oxaliplatin]	Non-irritation	0	Mild irritation	0.5	Severe irritation	4.8	Severe skin toxicities	650	66.0	6.7	12.0	29	4089	468.7	72.7±46.2	7	129.2±103.9		
N.N.[Cl][Pt][Cl] [Cisplatin]																		78	78
